From ChEMBL document CHEMBL4425170, “Novel Series of Potent Glucokinase Activators Leading to the Discovery of AM-2394” (ACS Med Chem Lett, 2016)
In brackets after ≈: the same amount, converted by molar mass.

Columns and labels:
[1] = Half life in rat at 0.5 mg/kg, iv; type: ADME, organism-based; settings: in vivo
[2] = Terminal plasma concentration in ob/ob mouse at 10 mg/kg, po administered 30 mins prior to testing by oral glucose tolerance test; type: ADME, organism-based; settings: read-out: Cp(T)
[3] = Terminal plasma concentration in ob/ob mouse at 3 mg/kg, po administered 30 mins prior to testing by oral glucose tolerance test; type: ADME, organism-based; settings: read-out: Cp(T)
[4] = Oral bioavailability in cynomolgus monkey at 2 mg/kg; type: ADME, organism-based, Macaca fascicularis; settings: in vivo
[5] = Clearance in rat at 2 mg/kg, po or 0.5 mg/kg, iv; type: ADME, organism-based; settings: in vivo
[6] = Clearance in cynomolgus monkey at 2 mg/kg, po or 0.5 mg/kg, iv; type: ADME, organism-based, Macaca fascicularis; settings: in vivo
[7] = Tmax in dog at 2 mg/kg, po or 0.5 mg/kg, iv; type: ADME, organism-based, Canis lupus familiaris; settings: in vivo
[8] = Half life in cynomolgus monkey at 0.5 mg/kg, iv; type: ADME, organism-based, Macaca fascicularis; settings: in vivo
[9] = Volume of distribution at steady state in rat at 2 mg/kg, po or 0.5 mg/kg, iv; type: ADME, organism-based; settings: in vivo, read-out: Vdss
[10] = Cmax in cynomolgus monkey at 2 mg/kg, po; type: ADME, organism-based, Macaca fascicularis; set-up: dose 2 mg/kg, route oral; settings: in vivo
in vivo = settings: mouse, po, 5 mg/kg
[11] = Volume of distribution at steady state in dog at 2 mg/kg, po or 0.5 mg/kg, iv; type: ADME, organism-based, Canis lupus familiaris; settings: in vivo, read-out: Vdss
[12] = Cmax in mouse at 5 mg/kg, po; type: ADME, organism-based; set-up: dose 5 mg/kg, route oral; settings: in vivo
[13] = Cmax in dog at 2 mg/kg, po; type: ADME, organism-based, Canis lupus familiaris; set-up: dose 2 mg/kg, route oral; settings: in vivo
[14] = Volume of distribution at steady state in cynomolgus monkey at 2 mg/kg, po or 0.5 mg/kg, iv; type: ADME, organism-based, Macaca fascicularis; settings: in vivo, read-out: Vdss
[15] = Tmax in cynomolgus monkey at 2 mg/kg, po or 0.5 mg/kg, iv; type: ADME, organism-based, Macaca fascicularis; settings: in vivo
[16] = Clearance in dog at 2 mg/kg, po or 0.5 mg/kg, iv; type: ADME, organism-based, Canis lupus familiaris; settings: in vivo
[17] = Cmax in rat at 2 mg/kg, po; type: ADME, organism-based; set-up: dose 2 mg/kg, route oral; settings: in vivo
physchem = settings: SIF, pH 6.8
[18] = Clearance in mouse at 5 mg/kg, po or 1 mg/kg, iv; type: ADME, organism-based; settings: in vivo
[19] = Tmax in mouse at 5 mg/kg, po or 1 mg/kg, iv; type: ADME, organism-based; settings: in vivo
[20] = Oral bioavailability in dog at 2 mg/kg; type: ADME, organism-based, Canis lupus familiaris; settings: in vivo
[21] = Tmax in rat at 2 mg/kg, po or 0.5 mg/kg, iv; type: ADME, organism-based; settings: in vivo
[22] = Half life in mouse at 1 mg/kg, iv; type: ADME, organism-based; settings: in vivo
[23] = Volume of distribution at steady state in mouse at 5 mg/kg, po or 1 mg/kg, iv; type: ADME, organism-based; settings: in vivo, read-out: Vdss
[24] = Half life in dog at 0.5 mg/kg, iv; type: ADME, organism-based, Canis lupus familiaris; settings: in vivo
[25] = Terminal plasma concentration in ob/ob mouse at 30 mg/kg, po administered 30 mins prior to testing by oral glucose tolerance test; type: ADME, organism-based; settings: read-out: Cp(T)

With CNC(=O)Nc1cc(Oc2cncc(C)c2)c(-c2ccc(OCC(C)(C)O)nc2)cn1 as the compound, how does the half-life [1] read?
The half-life was 1.4 h.

What about the concentration at 0.5 h [2] of the same compound?
Its concentration at 0.5 h is 3600 nM.

What about the concentration at 0.5 h [3] of the same compound?
Its concentration at 0.5 h is 1200 nM.

What about the bioavailability [4] of the same compound?
Its bioavailability is 70%.

What about the clearance [5] of the same compound?
The clearance was 27.3 mL/min/kg.

And the clearance [6]?
The clearance was 10 mL/min/kg.

And the Tmax [7]?
The Tmax was 1.33 h.

What about the half-life [8] of the same compound?
Its half-life is 6.7 h.

What about the Vd [9] of the same compound?
Its Vd is 2.18 L/kg.

What about the Cmax [10] of the same compound?
Its Cmax is 1150 nM.

And the bioavailability (in vivo)?
Its bioavailability is 25%.

And the Vd [11]?
The Vd was 1.49 L/kg.

And the Cmax [12]?
The Cmax was 350 nM.

What about the Cmax [13] of the same compound?
The Cmax was 3520 nM.

And the Vd [14]?
The Vd was 2.29 L/kg.

What about the Tmax [15] of the same compound?
Its Tmax is 1.67 h.

What about the clearance [16] of the same compound?
Its clearance is 4.17 mL/min/kg.

What about the Cmax [17] of the same compound?
Its Cmax is 490 nM.

What about the solubility (physchem) of the same compound?
The solubility was 46 µM (≈ 19.5 µg/mL).

What about the clearance [18] of the same compound?
Its clearance is 6.17 mL/min/kg.

And the Tmax [19]?
The Tmax was 0.33 h.

And the bioavailability [20]?
The bioavailability was 99%.

What about the Tmax [21] of the same compound?
The Tmax was 0.83 h.

And the half-life [22]?
The half-life was 2 h.

What about the Vd [23] of the same compound?
Its Vd is 0.59 L/kg.

What about the half-life [24] of the same compound?
The half-life was 6.5 h.

And the concentration at 0.5 h [25]?
The concentration at 0.5 h was 38000 nM.

Which solubility (physchem) does the source give for CNC(=O)Nc1cc(Oc2cncc(C)c2)c(-c2ccc(OC[C@H](C)O)nc2)cn1 here?
Its solubility is 176 µM (≈ 72.1 µg/mL).

Which solubility (physchem) does the source give for CNC(=O)Nc1cc(Oc2cncc(C)c2)c(-c2ccc(OC[C@@H](C)O)nc2)cn1 here?
Its solubility is 226 µM (≈ 92.5 µg/mL).

What does the source list for CNC(=O)Nc1cc(Oc2cncc(C)c2)c(-c2ccc(OCCO)nc2)cn1?
bioavailability (in vivo): 6%; solubility (physchem): < 1 µM
